Earlier results in patent publication EP0072762B1, “Fluorinated diaminoalkene derivatives” (priority 1981, dated 1983).

System: tumor
Conditions: administered intravenously once or twice a week, cited from earlier work

CC(C=NNC(=N)N)=NNC(=N)N [MGBG, methylglyoxal bis(guanylhydrazone)]
complete disappearance of the diseases (65 treated patients): two of the 65 treated patients | regression of the tumor (patients in advanced stages of various carcinomas, lymphoma, leukemia etc.): measurable regression of the tumor in many of the patients treated
